Results as given in US6531469B1, “Substituted 1-(4-piperidyl)-3-(aryl) isothioureas their preparation and their therapeutic application” (Pierre Fabre Medicament, priority 1999, dated 2003).
Counter-ions that a name gives are not always drawn.

Experiments:
rat isolated left atrium = experiment: Inhibition of the contracture with veratrine, rat isolated left atrium; conditions: veratrine-induced contracture, 10^−7 M of test compound
Excerpt: (§1) The compounds of the present invention of formula I and the therapeutically acceptable salts thereof have advantageous pharmacological properties. These derivatives are active in vitro, on cardiomyocytes, by inhibiting the diastolic contracture induced with veratrine, on rat isolated left atrium. They also abolish the diastolic contracture induced by the global ischemia of infused isolated guinea pig heart according to the Langendorff technique. These compounds are also active in vivo, in reinfusion ischemia in anesthetized rabbits: they inhibit the electrical disturbances in the ECG which are caused by reinfusion ischemia, without any appreciable hemodynamic effect, and are not cardiac depressants. Such compounds are useful preventively or curatively in the treatment of coronaropathies, cardiac and cerebral ischemia in all their forms and in the treatment of atherosclerosis, cardiac insufficiency, pain, migraine and epilepsy.
1) Inhibition of the contracture with veratrine, of rat isolated left atrium, was carried out according to the technique of Le Grand et al. (Naunyn—Schmiedeberg's Arch Pharmacol (1993) 348 p 184-190). The results are given in Table I. The percentages of inhibition are relative to a concentration of 10^−7 M of test compound.

[1] = test system: infused isolated guinea pig heart; experiment: Inhibition of diastolic contracture induced by global ischemia of infused isolated guinea pig heart (Langendorff); conditions: global ischemia 50 min, relative to vehicle group; for inhibition at 1 µM: Cavia porcellus, 50 min
Excerpt: as §1
2) Inhibition of the diastolic contracture induced by the global ischemia of infused isolated guinea pig heart is carried out according to the technique described by Le Grand B. et al. (Am. J. Physiol. 269, H533-H540 (1995)). The guinea pig hearts collected are infused with a modified Krebs solution and, after stabilization for 20 minutes, the test compound dissolved in water or in aqueous 1% DMSO solution is added. After 15 minutes, global ischemia is induced by stopping the coronary infusion for 50 minutes, followed by reinfusion for 1 h. The inhibition of ischemic contracture, in the presence of the compounds of the present invention, is measured relative to that obtained in the vehicle group. The results are given in Table II by way of non-limiting example at a concentration of 1 μM.

anesthetized rabbits = experiment: Ischemia-reinfusion in anesthetized rabbits, oral route; type: in vivo; conditions: anesthetized rabbit
Excerpt: as §1
The compounds of the present invention are also active via the oral route in the test of ischemia-reinfusion in anesthetized rabbits, according to the method of Verscheure et al. (J. Cardiovasc Pharmacol (1995) 25 p 126-133). The results for the compounds of Examples 6 and 14 are given in Table III below, by way of non-limiting example: […]

Compound: CN(C1=Nc2ccccc2CS1)C1CCN(CCCCCOCc2ccc(F)cc2)CC1.O=C(O)/C=C/C(=O)O
- melting point: 167 °C

Compound: CN(C1=Nc2ccccc2CS1)C1CCN(CCCCCOCc2ccc(F)c(F)c2)CC1.O=C(O)/C=C/C(=O)O
- melting point: 169 °C

Compound: CN(C1=Nc2ccccc2CS1)C1CCN(CCCCOCc2ccc(F)c(F)c2)CC1.O=C(O)/C=C/C(=O)O
- melting point: 170 °C

Compound: CN(C1=Nc2ccccc2CS1)C1CCN(CCCOCc2ccc(F)c(F)c2)CC1.O=C(O)/C=C/C(=O)O
- melting point: 168 °C

Compound: CN(C1=Nc2ccccc2CS1)C1CCN(CCCCOCCc2ccc(F)c(F)c2)CC1.O=C(O)/C=C/C(=O)O
- melting point: 163 °C

Compound: COc1ccc(COCCCCCN2CCC(N(C)C3=Nc4ccccc4CS3)CC2)cc1.O=C(O)/C=C/C(=O)O
- melting point: 163 °C

Compound: COc1ccc(COCCCCN2CCC(N(C)C3=Nc4ccccc4CS3)CC2)cc1.O=C(O)/C=C/C(=O)O
- melting point: 165 °C

Compound: COc1ccc(COCCCN2CCC(N(C)C3=Nc4ccccc4CS3)CC2)cc1.O=C(O)/C=C/C(=O)O
- melting point: 166 °C

Compound: COc1ccc(CCOCCCCN2CCC(N(C)C3=Nc4ccccc4CS3)CC2)cc1.O=C(O)/C=C/C(=O)O
- melting point: 156 °C

Compound: COc1ccc(CCOCCCN2CCC(N(C)C3=Nc4ccccc4CS3)CC2)cc1.O=C(O)/C=C/C(=O)O
- melting point: 155 °C

Compound: COc1ccc(CCOCCN2CCC(N(C)C3=Nc4ccccc4CS3)CC2)cc1.O=C(O)/C=C/C(=O)O
- melting point: 152 to 153 °C

Compound: CN(C1=Nc2ccccc2CS1)C1CCN(CCOCc2ccccc2)CC1.O=C(O)/C=C/C(=O)O
- melting point: 166 to 167 °C

Compound: CN(C1=Nc2ccccc2CS1)C1CCN(CCCOCCc2ccccc2)CC1.O=C(O)/C=C/C(=O)O
- melting point: 166 °C

Compound: COc1ccc(CCOCC(O)CN2CCC(N(C)C3=Nc4ccccc4CS3)CC2)cc1.O=C(O)/C=C/C(=O)O (stereo not drawn)
- melting point: 132 to 133 °C

Compound: Cc1ccc2c(c1)CSC(N(C)C1CCN(CCCOCCc3ccc(F)cc3)CC1)=N2.O=C(O)/C=C/C(=O)O
- melting point: 169 to 172 °C

Compound: CN(C1=Nc2ccc(Cl)cc2CS1)C1CCN(CCCOCCc2ccc(F)cc2)CC1.O=C(O)/C=C/C(=O)O
- melting point: 167 to 170 °C

Compound: COc1cc2c(c(OC)c1OC)N=C(N(C)C1CCN(CCCOCCc3ccc(F)cc3)CC1)SC2.O=C(O)/C=C/C(=O)O
- melting point: 68 °C

Compound: CN(C1=Nc2ccccc2CS1)C1CCN(CCCOCc2ccc(F)cc2)CC1.O=C(O)/C=C/C(=O)O
- melting point: 163 to 164 °C

Compound: CN(C1=Nc2ccccc2CS1)C1CCN(CCOCc2ccc(F)cc2)CC1.O=C(O)/C=C/C(=O)O
- melting point: 160 to 161 °C

Compound: CN(C1=Nc2ccccc2CS1)C1CCN(CCCOCCCc2ccc(F)cc2)CC1.O=C(O)/C=C/C(=O)O
- melting point: 176 °C

Compound: CN(C1=Nc2ccccc2CS1)C1CCN(CCCOCCc2ccc(F)cc2)CC1 (as salt: fumarate) [Example 6, N-Methyl-N-[1-[3-[2-(4-fluorophenyl)ethoxy]propyl]-4-piperidyl]-4H-3,1-benzothiazin-2-amine Hydrogen Fumarate]
- melting point: 163 to 164 °C

Compound: CN(C1=Nc2ccccc2CS1)C1CCN(CCOCCc2ccc(F)cc2)CC1 (as salt: fumarate) [Example 9, N-Methyl-N-[1-[2-[2-(4-fluorophenyl)ethoxy]ethyl]-4-piperidyl]-4H-3,1-benzothiazin-2-amine]
- melting point: 145 to 146 °C

Compound: Fc1ccc(CCOCCCN2CCC(NC3=Nc4ccccc4CO3)CC2)cc1 (as salt: hydrochloride) (hydrate or solvate) [Example 30, N-[1-[3-[2-(4-Fluorophenyl)ethoxypropyl]-4-piperidyl]-4H-3,1-benzoxazin-2-amine Dihydrochloride Hydrate]
- melting point: 158 to 159 °C

Compound: CN(C1=Nc2ccccc2CS1)C1CCN(CCCCOc2ccc(F)c(F)c2)CC1 [Control, N-Methyl-N-[1-[4-(3,4-difluorophenoxy)butyl]-4-piperidyl)-4H-3,1-benzothiazin-2-amine]
- inhibition at 0.1 µM (rat isolated left atrium): 26%
- inhibition at 1 µM [1]: 48%
- % change in arterial pressure (anesthetized rabbits; 0.63 mg/kg p.o.): 5%
- % change in heart rate (anesthetized rabbits; 0.63 mg/kg p.o.): 0%
- % inhibition of over-increase of ST segment (anesthetized rabbits; 0.63 mg/kg p.o.): 31%
- Number of animals with reinfusion arrhythmia (anesthetized rabbits; 0.63 mg/kg p.o.): 1/5

Compound: CN(C1=Nc2ccccc2CS1)C1CCN(CCCCOCCc2ccc(F)cc2)CC1.O=C(O)/C=C/C(=O)O [Example 5, N-Methyl-N-[1-[4-[2-(4-fluorophenyl)ethoxy]butyl]-4-piperidyl]-4H-3,1-benzothiazin-2-amine Hydrogen Fumarate]
- inhibition at 0.1 µM (rat isolated left atrium): 63%
- melting point: 173 to 174 °C

Compound: CN(C1=Nc2ccccc2CS1)C1CCN(CCCOCCc2ccc(F)cc2)CC1 [Example 6, N-Methyl-N-[1-[3-[2-(4-fluorophenyl)ethoxy]propyl]-4-piperidyl]-4H-3,1-benzothiazin-2-amine Hydrogen Fumarate]
- inhibition at 0.1 µM (rat isolated left atrium): 41%
- inhibition at 1 µM [1]: 79%
- % change in arterial pressure (anesthetized rabbits; 0.63 mg/kg p.o.): 0%
- % change in heart rate (anesthetized rabbits; 0.63 mg/kg p.o.): −7%
- % inhibition of over-increase of ST segment (anesthetized rabbits; 0.63 mg/kg p.o.): 42%
- Number of animals with reinfusion arrhythmia (anesthetized rabbits; 0.63 mg/kg p.o.): 3/5

Compound: CN(C1=Nc2ccccc2CS1)C1CCN(CCCOCCc2ccc(F)c(F)c2)CC1.O=C(O)/C=C/C(=O)O [Example 14, N-Methyl-N-[1-[3-[2-(3,4-difluorophenyl)ethoxy]propyl]-4-piperidyl]-4H-3,1-benzothiazin-2-amine Hydrogen Fumarate]
- inhibition at 0.1 µM (rat isolated left atrium): 32%
- inhibition at 1 µM [1]: 77%
- % change in arterial pressure (anesthetized rabbits; 0.63 mg/kg p.o.): 3%
- % change in heart rate (anesthetized rabbits; 0.63 mg/kg p.o.): −5%
- % inhibition of over-increase of ST segment (anesthetized rabbits; 0.63 mg/kg p.o.): 83%
- Number of animals with reinfusion arrhythmia (anesthetized rabbits; 0.63 mg/kg p.o.): 0/5
- melting point: 162 °C

Compound: CN(c1nc2ccccc2s1)C1CCN(CCCCOc2ccc(F)cc2)CC1 [Example R56865, N-(1-(4-(4-fluorophenoxy)butyl)4-piperidyl)-N-methyl-2-benzothiazolamine]
- inhibition at 0.1 µM (rat isolated left atrium): 32%
- % change in arterial pressure (anesthetized rabbits; 2.5 mg/kg p.o.): 27%
- % change in heart rate (anesthetized rabbits; 2.5 mg/kg p.o.): 0%
- % inhibition of over-increase of ST segment (anesthetized rabbits; 2.5 mg/kg p.o.): 0%
- Number of animals with reinfusion arrhythmia (anesthetized rabbits; 2.5 mg/kg p.o.): 2/5
- % change in arterial pressure (anesthetized rabbits; 10 mg/kg p.o.): 15%
- % change in heart rate (anesthetized rabbits; 10 mg/kg p.o.): 5%
- % inhibition of over-increase of ST segment (anesthetized rabbits; 10 mg/kg p.o.): 100%
- Number of animals with reinfusion arrhythmia (anesthetized rabbits; 10 mg/kg p.o.): 0/5

Compound: CS(=O)(=O)c1cc(C(=O)NC(=N)N)ccc1N1CCCCC1.Cl [HOE 694, 3-(Methylsulfonyl-4-piperidinobenzoyl)guanidine hydrochloride, reference compound]
- % diastolic contracture inhibition at 1 μM [1]: 17%

Compound: CN(c1nc2ccccc2s1)C1CCN(CC(O)COc2ccc(F)cc2)CC1 (stereo not drawn) [Sabeluzole]
- inhibition at 0.1 µM (rat isolated left atrium): 5%
- % change in arterial pressure (anesthetized rabbits; 10 mg/kg p.o.): 12%
- % change in heart rate (anesthetized rabbits; 10 mg/kg p.o.): 0%
- % inhibition of over-increase of ST segment (anesthetized rabbits; 10 mg/kg p.o.): 34%
- Number of animals with reinfusion arrhythmia (anesthetized rabbits; 10 mg/kg p.o.): 3/4

Compound: N-Methyl-N-[1-[2-hydroxy-3-(4-fluorophenylmethoxy)-propyl]-4-piperidyl]-4H-3,1-benzothiazin-2-amine Hemifumarate [Example 23]
- % inhibition at 10^−7 M (rat isolated left atrium): 35%
